These compounds were tested against T1, EP2 receptor (Homo sapiens, UniProt P43116) (assay: EP2 Potency Assay (cAMP TR-FRET, CHO-K1 cells transfected with EP2 receptor, PGE2 at EC80)). Conditions: CHO-K1 cells expressing EP2, prostaglandin E2 at EC80, read-out: EP2 Potency (IC50 category).
T1 construct: expressed in transfected cells; host or cells: CHO-K1 cells (ATCC), transient transfection with FuGENE 6
Assay type: cell-based
Method in brief: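 CHO-K1 cells transiently transfected with EP2 and seeded 24 h after transfection. IC50 from curve fit of percent inhibition versus concentration.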

T1 sequence (P43116 whole entry): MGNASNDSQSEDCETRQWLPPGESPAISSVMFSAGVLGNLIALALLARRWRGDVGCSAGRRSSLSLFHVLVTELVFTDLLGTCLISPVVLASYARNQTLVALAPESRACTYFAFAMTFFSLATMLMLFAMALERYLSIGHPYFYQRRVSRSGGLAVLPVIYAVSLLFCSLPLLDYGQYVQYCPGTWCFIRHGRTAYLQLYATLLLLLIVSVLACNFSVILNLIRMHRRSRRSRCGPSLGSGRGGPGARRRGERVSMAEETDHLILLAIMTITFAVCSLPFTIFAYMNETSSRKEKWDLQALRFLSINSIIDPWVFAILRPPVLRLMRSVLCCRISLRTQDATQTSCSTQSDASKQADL

IC50, 1000 to 5000 nM:
Fc1ccc2c(ccn2-c2cc(Cl)c3c(c2)CN(Cc2ccno2)CCO3)c1 [Compound 94]
O=c1ncc(CN2CCOc3c(Cl)cc(-c4cccc5nccn45)cc3C2)c[nH]1 [Compound 74]
CNc1cc(CN2CCOc3c(Cl)cc(-n4ccc5cc(F)ccc54)cc3C2)ccn1 [Compound 180, 4-{[9-chloro-7-(5-fluoroindol-1-yl)-3,5-dihydro-2H-1,4-benzoxazepin-4-yl]methyl}-N-methylpyridin-2-amine]
NCc1cc(CN2CCOc3c(Cl)cc(-n4ccc5cc(F)ccc54)cc3C2)ccn1 [Compound 184, 1-(4-{[9-chloro-7-(5-fluoroindol-1-yl)-3,5-dihydro-2H-1,4-benzoxazepin-4-yl]methyl}pyridin-2-yl)methanamine]
Fc1ccc2c(ccn2-c2cc(Cl)c3c(c2)CN(Cc2cnsc2)CCO3)c1 [Compound 96]
O=c1cc[nH]cc1CN1CCOc2c(Cl)cc(-n3ccc4cc(F)ccc43)cc2C1 [Compound 176]
N#Cc1ccc2c(ccn2-c2cc(Cl)c3c(c2)CN(Cc2cnc(=O)[nH]c2)CCO3)c1 [Compound 59]
NC(=O)c1ncc(CN2CCOc3c(Cl)cc(-n4ccc5cc(F)ccc54)cc3C2)cn1 [Compound 143, 5-{[9-chloro-7-(5-fluoroindol-1-yl)-3,5-dihydro-2H-1,4-benzoxazepin-4-yl]methyl}pyrimidine-2-carboxamide]
Fc1ccc2c(ccn2-c2cc(Cl)c3c(c2)CN(Cc2cn[nH]n2)CCO3)c1 [Compound 108, 9-chloro-7-(5-fluoroindol-1-yl)-4-(2H-1,2,3-triazol-4-ylmethyl)-3,5-dihydro-2H-1,4-benzoxazepine]
Fc1ccc2c(ccn2-c2cc(Cl)c3c(c2)CN(Cc2ccnc(NC4COC4)c2)CCO3)c1 [Compound 182, 4-{[9-chloro-7-(5-fluoroindol-1-yl)-3,5-dihydro-2H-1,4-benzoxazepin-4-yl]methyl}-N-(oxetan-3-yl)pyridin-2-amine]
COc1cnc(CN2CCOc3c(Cl)cc(-n4ccc5cc(F)ccc54)cc3C2)cn1 [Compound 172]
Fc1ccc2c(ccn2-c2cc(Cl)c3c(c2)CN(Cc2cn[nH]c2)CCO3)c1 [Compound 103, 4-((1H-pyrazol-4-yl)methyl)-9-chloro-7-(5-fluoro-1H-indol-1-yl)-2,3,4,5-tetrahydrobenzo[f][1,4]oxazepane]
COc1ncc(CN2CCOc3c(Cl)cc(-c4coc5ccccc45)cc3C2)cn1 [Compound 56]
O=c1ncc(CN2CCOc3c(Cl)cc(N4CCCc5cc(F)ccc54)cc3C2)c[nH]1 [Compound 80]
O=c1ncc(CN2CCOc3c(Cl)cc(-c4cccc5ccccc45)cc3C2)c[nH]1 [Compound 82]
O=c1ncc(CN2CCOc3c(Cl)cc(-n4ccc5cc(F)ccc54)cc3C2)c(F)[nH]1 [Compound 155, 5-{[9-chloro-7-(5-fluoroindol-1-yl)-3,5-dihydro-2H-1,4-benzoxazepin-4-yl]methyl}-4-fluoro-3H-pyrimidin-2-one]
COc1ncc(CN2CCOc3c(Cl)cc(-c4ncc5ccccn45)cc3C2)cn1 [Compound 40, 9-chloro-7-{imidazo[1,5-a]pyridin-3-yl}-4-[(2-methoxypyrimidin-5-yl)methyl]-3,5-dihydro-2H-1,4-benzoxazepine]
Nc1ccc(CN2CCOc3c(Cl)cc(-n4ccc5cc(F)ccc54)cc3C2)nn1 [Compound 167]

IC50, 500 to 1000 nM:
Fc1ccc2c(ccn2-c2cc(Cl)c3c(c2)CN(Cc2cncs2)CCO3)c1 [Compound 99]
COc1ncc(CN2CCOc3c(Cl)cc(-n4ccc5ncccc54)cc3C2)cn1 [Compound 37]
NC(=O)[C@H]1CC[C@H](CN2CCOc3c(Cl)cc(-n4ccc5cc(F)ccc54)cc3C2)CC1 [Compound 126]
CC1c2cc(-n3ccc4cc(F)ccc43)cc(Cl)c2OCCN1Cc1cc[nH]c(=O)c1 (stereo not drawn) [Compound 235]
O=c1ncc(CN2CCOc3c(Cl)cc(-n4ccc5ncccc54)cc3C2)c[nH]1 [Compound 68]
CN(C)c1ncc(CN2CCOc3c(Cl)cc(-n4ccc5cc(F)ccc54)cc3C2)cn1 [Compound 148]
Fc1ccc2c(ccn2-c2cc(Cl)c3c(c2)CN(Cc2cccnn2)CCO3)c1 [Compound 166]

IC50, > 5000 nM:
C[C@@H]1c2cc(-n3ccc4cc(F)ccc43)cc(Cl)c2OCCN1Cc1cc[nH]c(=O)c1 (single isomer, unassigned) [Compound 236]
O=c1ncc(CN2CCOc3c(Cl)cc(-n4ccc5ccncc54)cc3C2)c[nH]1 [Compound 71]
COc1ncc(CN2CCOc3c(Cl)cc(-n4ccc5cnccc54)cc3C2)cn1 [Compound 36]
COc1ncc(CN2CCOc3c(Cl)cc(-n4ccc5cc(Br)ccc54)cc3C2)cn1 [Compound 22]
O=c1ncc(CN2CCOc3c(Cl)cc(-n4ccc5cccnc54)cc3C2)c[nH]1 [Compound 69]
Fc1ccc2c(ccn2-c2cc(Cl)c3c(c2)CN(Cc2cncnc2)C2(CC2)CO3)c1 [Compound 218]
COc1ncc(CN2CCOc3c(Cl)cc(-c4cccc5c4OCCO5)cc3C2)cn1 [Compound 57]
CC(C)(C)OC(=O)n1cc(CN2CCOc3c(Cl)cc(-n4ccc5cc(F)ccc54)cc3C2)cn1 [Compound 104]
Fc1ccc2c(ccn2-c2cc(Cl)c3c(c2)CN(Cc2ccco2)CCO3)c1 [Compound 89]
Nc1nc(CN2CCOc3c(Cl)cc(-n4ccc5cc(F)ccc54)cc3C2)ns1 [Compound 117, 3-{[9-chloro-7-(5-fluoroindol-1-yl)-3,5-dihydro-2H-1,4-benzoxazepin-4-yl]methyl}-1,2,4-thiadiazol-5-amine]
O=c1ncc(CN2CCOc3c(Cl)cc(-c4cccc5c4CCCC5)cc3C2)c[nH]1 [Compound 83]
COc1ncc(CN2CCOc3c(Cl)cc(-n4ccc5cc(SC)ccc54)cc3C2)cn1 [Compound 21]
Fc1ccc2c(ccn2-c2cc(Cl)c3c(c2)CN(Cc2cocn2)CCO3)c1 [Compound 95]
COc1cc(CN2CCOc3c(Cl)cc(-n4ccc5cc(F)ccc54)c(C)c3C2)ccn1 [Compound 221]
Fc1ccc2c(ccn2-c2cc(Cl)c3c(c2)CN(Cc2nsc(Cl)n2)CCO3)c1 [Compound 115, 9-chloro-4-[(5-chloro-1,2,4-thiadiazol-3-yl)methyl]-7-(5-fluoroindol-1-yl)-3,5-dihydro-2H-1,4-benzoxazepine]
O=c1cc(CN2CCOc3c(Cl)cc(-n4ccc5cc(F)ccc54)cc32)cc[nH]1 [Compound 241]
COc1ncc(CN2CCOc3c(Cl)cc(N4Cc5ccccc5C4=O)cc3C2)cn1 [Compound 48]
N#Cc1cccc(CN2Cc3cc(-n4ccc5cc(F)ccc54)cc(Cl)c3OCC23CC3)c1 [Compound 220]

IC50, 100 to 500 nM:
Fc1ccc2c(ccn2-c2cc(Cl)c3c(c2)CN(Cc2ccnc(Cl)c2C(F)(F)F)CCO3)c1 [Compound 192]
O=c1ncc(CN2CCOc3c(Cl)cc(-c4coc5ccccc45)cc3C2)c[nH]1 [Compound 84]
